From ChEMBL document CHEMBL1122489, “Pyrimidine derivatives. 4. Synthesis and antihypertensive activity of 4-amino-2-(4-cinnamoylpiperazino)-6,7-dimethoxyquinazoline derivatives” (J Med Chem, 1983)

Legend:
Assay type in all cases: functional
Rattus norvegicus [1] = assay: Antihypertensive activity rating in conscious SHR after 1 hr post dose at 3 mg/kg (po)
Rattus norvegicus [2] = assay: Antihypertensive activity rating in conscious SHR after 24 hr post dose at 0.3 mg/kg (po)
Rattus norvegicus [3] = assay: Antihypertensive activity rating in conscious SHR after 24 hr post dose at 3 mg/kg (po)
Rattus norvegicus [4] = assay: Antihypertensive activity rating in conscious SHR after 3 hr post dose at 0.3 mg/kg (po)
Rattus norvegicus [5] = assay: Antihypertensive activity rating in conscious SHR after 3 hr post dose at 1 mg/kg (po)
Rattus norvegicus [6] = assay: Antihypertensive activity rating in conscious SHR after 3 h post dose at 3 mg/kg (po)
Rattus norvegicus [7] = assay: Antihypertensive activity rating in conscious SHR after 6 hr post dose at 0.3 mg/kg (po)
Rattus norvegicus [8] = assay: Antihypertensive activity rating in conscious SHR after 6 hr post dose at 1 mg/kg (po)
Rattus norvegicus [9] = assay: Antihypertensive activity rating in conscious SHR after 6 hr post dose at 3 mg/kg (po)
Rattus norvegicus [10] = assay: Antihypertensive activity rating in conscious SHR after 1 hr post dose at 0.3 mg/kg (po)
Rattus norvegicus [11] = assay: Antihypertensive activity rating in conscious SHR after 1 hr post dose at 1 mg/kg (po)
Rattus norvegicus [12] = assay: Maximum percent decrease in blood pressure in SHR dosed at 1 mg/kg (hour post dose in parentheses)
Rattus norvegicus [13] = assay: Maximum percent decrease in blood pressure in SHR dosed at 0.3 mg/kg (hour post dose in parentheses)
Rattus norvegicus [14] = assay: Maximum percent decrease in blood pressure in SHR dosed at 3 mg/kg (hour post dose in parentheses)
Rattus norvegicus [15] = assay: Effect on blood pressure (initial) in renal hypertensive rats dosed at 10 mg/kg
Rattus norvegicus [16] = assay: Effect on blood pressure in renal hypertensive rats dosed at 10 mg/kg after 3 h
Rattus norvegicus [17] = assay: Effect on blood pressure in renal hypertensive rats dosed at 10 mg/kg after 6 h
Rattus norvegicus [18] = assay: Effect on blood pressure in renal hypertensive rats dosed at 3 mg/kg after 1 h
Rattus norvegicus [19] = assay: Effect on blood pressure in renal hypertensive rats dosed at 3 mg/kg after 12 h
Rattus norvegicus [20] = assay: Effect on blood pressure in renal hypertensive rats dosed at 3 mg/kg after 24 h
Rattus norvegicus [21] = assay: Effect on blood pressure in renal hypertensive rats dosed at 3 mg/kg after 6 h
Rattus norvegicus [22] = assay: Effect on mean blood pressure (initial) in renal hypertensive rats dosed at 3 mg/kg
Rattus norvegicus [23] = species: Rattus norvegicus; assay: Compound was tested for alpha-adrenoceptor blocking activity by its ability to antagonize norepinephrine contraction in the rat thoracic aorta; details: read-out: pA2 (converted)
Rattus norvegicus [24] = assay: Effect on blood pressure in renal hypertensive rats dosed at 10 mg/kg after 1 h
Rattus norvegicus [25] = assay: Effect on blood pressure in renal hypertensive rats dosed at 10 mg/kg after 12 h
Rattus norvegicus [26] = assay: Effect on blood pressure in renal hypertensive rats dosed at 10 mg/kg after 24 h
[27] = Potency ratio in rat thoracic aorta
Rattus norvegicus [28] = assay: Antihypertensive activity rating in conscious SHR after 24 hr post dose at 1 mg/kg (po)
Rattus norvegicus [29] = assay: Effect on blood pressure in renal hypertensive rats dosed at 3 mg/kg after 3 h
Rattus norvegicus [30] = assay: Effect on blood pressure in renal hypertensive rats dosed at 10mg/kg, po after 1 h
Rattus norvegicus [31] = assay: Effect on blood pressure in renal hypertensive rats dosed at 10 mg/kg, po after 24 h
Rattus norvegicus [32] = assay: Effect on blood pressure in renal hypertensive rats dosed at 10 mg/kg, po after 3 h
Rattus norvegicus [33] = assay: Effect on blood pressure in renal hypertensive rats dosed at 10mg/kg, po after 6 h
Rattus norvegicus [34] = assay: Effect on blood pressure in renal hypertensive rats dosed at 3 mg/kg, po after 1 h
Rattus norvegicus [35] = assay: Effect on blood pressure in renal hypertensive rats dosed at 3 mg/kg, po after 24 h
Rattus norvegicus [36] = assay: Effect on blood pressure in renal hypertensive rats dosed at 3 mg/kg, po after 3 h
Rattus norvegicus [37] = assay: Effect on blood pressure in renal hypertensive rats dosed at 3 mg/kg, po after 6 h
Rattus norvegicus [38] = assay: Effect on mean blood pressure (initial) in renal hypertensive rats dosed at 3 mg/kg, po
Rattus norvegicus [39] = assay: Effect on blood pressure (initial) in renal hypertensive rats dosed at 10mg/kg, po

CCOc1ccc(/C=C/C(=O)N2CCN(c3nc(N)c4cc(OC)c(OC)cc4n3)CC2)cc1
Activity (Rattus norvegicus [1]): 0 | Activity (Rattus norvegicus [2]): 1 | Activity (Rattus norvegicus [3]): 0 | Activity (Rattus norvegicus [4]): 0 | Activity (Rattus norvegicus [5]): 1 | Activity (Rattus norvegicus [6]): 1 | Activity (Rattus norvegicus [7]): 0 | Activity (Rattus norvegicus [8]): 2 | Activity (Rattus norvegicus [9]): 2 | Activity (Rattus norvegicus [10]): 0 | Activity (Rattus norvegicus [11]): 0 | Decrease (Rattus norvegicus [12]): 21% | Decrease (Rattus norvegicus [13]): 13% | Decrease (Rattus norvegicus [14]): 24% | Mean blood pressure (Rattus norvegicus [15]): 204 mmHg | Mean blood pressure (Rattus norvegicus [16]): -16.3 mmHg | Mean blood pressure (Rattus norvegicus [17]): -19.1 mmHg | Mean blood pressure (Rattus norvegicus [18]): -4 mmHg | Mean blood pressure (Rattus norvegicus [19]): -10.6 mmHg | Mean blood pressure (Rattus norvegicus [20]): -2.6 mmHg | Mean blood pressure (Rattus norvegicus [21]): -14.5 mmHg | Mean blood pressure (Rattus norvegicus [22]): 203 mmHg | Kb (Rattus norvegicus [23]): 2.19 nM | Mean blood pressure (Rattus norvegicus [24]): -6.2 mmHg | Mean blood pressure (Rattus norvegicus [25]): -15.5 mmHg | Mean blood pressure (Rattus norvegicus [26]): -10.4 mmHg | Ratio [27]: 0.02 | Activity (Rattus norvegicus [28]): 0 | Mean blood pressure (Rattus norvegicus [29]): -11.7 mmHg

COc1cc2nc(N3CCN(C(=O)/C=C/c4ccco4)CC3)nc(N)c2cc1OC.Cl
Activity (Rattus norvegicus [1]): 3 | Activity (Rattus norvegicus [2]): 0 | Activity (Rattus norvegicus [3]): 0 | Activity (Rattus norvegicus [4]): 1 | Activity (Rattus norvegicus [5]): 1 | Activity (Rattus norvegicus [6]): 2 | Activity (Rattus norvegicus [7]): 1 | Activity (Rattus norvegicus [8]): 2 | Activity (Rattus norvegicus [9]): 2 | Activity (Rattus norvegicus [10]): 1 | Activity (Rattus norvegicus [11]): 2 | Decrease (Rattus norvegicus [12]): 28% | Decrease (Rattus norvegicus [13]): 15% | Decrease (Rattus norvegicus [14]): 41% | Mean blood pressure (Rattus norvegicus [15]): 181 mmHg | Mean blood pressure (Rattus norvegicus [16]): -16.3 mmHg | Mean blood pressure (Rattus norvegicus [17]): -17.4 mmHg | Mean blood pressure (Rattus norvegicus [18]): -17.1 mmHg | Mean blood pressure (Rattus norvegicus [20]): -5.2 mmHg | Mean blood pressure (Rattus norvegicus [21]): -18.3 mmHg | Mean blood pressure (Rattus norvegicus [22]): 193 mmHg | Kb (Rattus norvegicus [23]): 0.141 nM | Mean blood pressure (Rattus norvegicus [24]): -17.9 mmHg | Mean blood pressure (Rattus norvegicus [26]): -11.7 mmHg | Ratio [27]: 0.4 | Activity (Rattus norvegicus [28]): 0 | Mean blood pressure (Rattus norvegicus [29]): -16.9 mmHg

COc1cc2nc(N3CCN(C(=O)c4ccco4)CC3)nc(N)c2cc1OC.Cl [PRAZOSIN HYDROCHLORIDE]
Activity (Rattus norvegicus [1]): 2 | Activity (Rattus norvegicus [2]): 0 | Activity (Rattus norvegicus [3]): 0 | Activity (Rattus norvegicus [4]): 1 | Activity (Rattus norvegicus [5]): 2 | Activity (Rattus norvegicus [6]): 1 | Activity (Rattus norvegicus [7]): 1 | Activity (Rattus norvegicus [8]): 1 | Activity (Rattus norvegicus [9]): 1 | Activity (Rattus norvegicus [10]): 1 | Activity (Rattus norvegicus [11]): 2 | Decrease (Rattus norvegicus [12]): 25% | Decrease (Rattus norvegicus [13]): 19% | Decrease (Rattus norvegicus [14]): 27% | Mean blood pressure (Rattus norvegicus [30]): -25.6 mmHg | Mean blood pressure (Rattus norvegicus [31]): -8.9 mmHg | Mean blood pressure (Rattus norvegicus [32]): -17.6 mmHg | Mean blood pressure (Rattus norvegicus [33]): -14.7 mmHg | Mean blood pressure (Rattus norvegicus [34]): -17.9 mmHg | Mean blood pressure (Rattus norvegicus [35]): -3.3 mmHg | Mean blood pressure (Rattus norvegicus [36]): -15.5 mmHg | Mean blood pressure (Rattus norvegicus [37]): -14.5 mmHg | Mean blood pressure (Rattus norvegicus [38]): 197 mmHg | Kb (Rattus norvegicus [23]): 0.0513 nM | Mean blood pressure (Rattus norvegicus [39]): 187 mmHg | Ratio [27]: 1 | Activity (Rattus norvegicus [28]): 0
